# Patent US20170150719A1, “FUNGICIDAL PYRAZOLES AND THEIR MIXTURES” (E I DU PONT DE NEMOURS AND COMPANY, priority 2010, published 2017)
# Columns and labels:
# [1] = system: Puccinia recondita f. sp. tritici; experiment: Test H: wheat leaf rust, preventive spray on wheat seedlings, visual disease rating; conditions: 100 = 100% disease control; for Test H rating (% disease control) / Test H rating (disease control): wheat leaf rust; for Test H rating (% disease control): preventive spray, rating without asterisk; for pest or weed control at 200 µg/mL: read-out: Test H rating (disease control), wheat leaf rust, sprayed the day before inoculation; for pest or weed control at 200 µg/mL / Test H rating (disease control): 0 = no disease control; for Test H rating (disease control): sprayed the day before inoculation
# [2] = system: Puccinia recondita f. sp. tritici; experiment: Test G: wheat leaf rust, spray after inoculation (curative) on wheat seedlings, visual disease rating; type: in vivo; conditions: 100 = 100% disease control; for Test G rating (% disease control): spray after inoculation, rating without asterisk; for pest or weed control at 200 µg/mL / Test G rating (disease control): sprayed after inoculation, 0 = no disease control
# Excerpt: (§1) A hyphen (-) indicates no test results.
# Septoria tritici = experiment: Test F: wheat leaf blotch, preventive spray on wheat seedlings, visual disease rating; type: in vivo; conditions: 100 = 100% disease control; for Test F rating (% disease control): preventive spray, rating without asterisk; for pest or weed control at 200 µg/mL: Zymoseptoria tritici; for pest or weed control at 200 µg/mL / Test F rating (disease control): 0 = no disease control relative to the controls
# Excerpt: as §1
# Septoria nodorum = experiment: Test E: Septoria glume blotch, preventive spray on wheat seedlings, visual disease rating; conditions: 100 = 100% disease control; for Test E rating (% disease control): Septoria glume blotch on wheat, preventive spray, rating without asterisk; for pest or weed control at 200 µg/mL: Parastagonospora nodorum, in Triticum aestivum, read-out: Test E rating (disease control), Septoria glume blotch; for pest or weed control at 200 µg/mL / Test E rating (disease control): 0 = no disease control relative to the controls; for Test E rating (disease control): Septoria glume blotch
# Botrytis cinerea = experiment: Test A: tomato Botrytis, preventive spray on tomato seedlings, visual disease rating; conditions: 100 = 100% disease control; for Test A rating (% disease control) / Test A rating (disease control): tomato Botrytis; for Test A rating (% disease control): preventive spray, 0 = no control relative to controls, rating without asterisk; for pest or weed control at 200 µg/mL: Botrytis cinerea, in Solanum lycopersicum, read-out: Test A rating (disease control), tomato Botrytis; for pest or weed control at 200 µg/mL / Test A rating (disease control): 0 = no disease control relative to the controls
# [3] = system: Blumeria graminis f. sp. tritici; experiment: Test I: wheat powdery mildew, preventive spray on wheat seedlings, visual disease rating; conditions: 100 = 100% disease control; for Test I rating (% disease control) / Test I rating (disease control): wheat powdery mildew; for Test I rating (% disease control): preventive spray, rating without asterisk; for pest or weed control at 200 µg/mL: Blumeria graminis, in Triticum aestivum, read-out: Test I rating (disease control), wheat powdery mildew; for pest or weed control at 200 µg/mL / Test I rating (disease control): 0 = no disease control relative to the controls
# Alternaria solani = experiment: Test B: tomato early blight, preventive spray on tomato seedlings, visual disease rating; conditions: for Test B rating (% disease control) / Test B rating (disease control): tomato early blight, 100 = 100% disease control; for Test B rating (% disease control): preventive spray, rating without asterisk; for pest or weed control at 200 µg/mL: Alternaria solani, in Solanum lycopersicum, read-out: Test B rating (disease control); for Test B rating (disease control): 0 = no disease control relative to the controls
SMILES,Test H rating (disease control) [1] [%],Test G rating (disease control) [2] [%],Test F rating (disease control) (Septoria tritici) [%],Test E rating (disease control) (Septoria nodorum) [%],Test A rating (disease control) (Botrytis cinerea) [%],Test I rating (disease control) [3] [%],Test B rating (disease control) (Alternaria solani) [%],other results
Cc1nn(C)c(Nc2c(F)cc(Br)cc2Br)c1-c1ccc(F)cc1I [compound 223],,,,,,,,Test H rating (% disease control) [1]: 97%; Test G rating (% disease control) [2]: 0%; Test F rating (% disease control) (Septoria tritici): 100%; Test E rating (% disease control) (Septoria nodorum): 0%; Test A rating (% disease control) (Botrytis cinerea): 98%; Test I rating (% disease control) [3]: 99%; Test B rating (% disease control) (Alternaria solani): 88%
"Cc1nn(C)c(Nc2c(F)cc(Br)cc2F)c1-c1ccc(F)cc1Cl [Compound 134, N-(4-bromo-2,6-difluorophenyl)-4-(2-chloro-4-fluorophenyl)-1,3-dimethyl-1H-pyrazol-5-amine]",,,,,,,,pest or weed control at 200 µg/mL [1]: 100%; pest or weed control at 200 µg/mL [2]: 74%; pest or weed control at 200 µg/mL (Septoria tritici): 100%; pest or weed control at 200 µg/mL (Septoria nodorum): 64%; pest or weed control at 200 µg/mL (Botrytis cinerea): 100%; pest or weed control at 200 µg/mL [3]: 100%; pest or weed control at 200 µg/mL (Alternaria solani): 99%
Cc1nn(C)c(Nc2c(Cl)cc(F)cc2Cl)c1-c1ccc(F)cc1Br [compound 98],99,9,99,0,99,96,0,
Cc1nn(C)c(Nc2c(F)cc(Cl)cc2F)c1-c1ccc(F)cc1I [compound 225],,,,,,,,Test H rating (% disease control) [1]: 99%; Test G rating (% disease control) [2]: 0%; Test F rating (% disease control) (Septoria tritici): 100%; Test E rating (% disease control) (Septoria nodorum): 0%; Test A rating (% disease control) (Botrytis cinerea): 99%; Test I rating (% disease control) [3]: 100%; Test B rating (% disease control) (Alternaria solani): 68%
Cc1nn(C)c(Nc2ccc(Br)cc2F)c1-c1ccc(F)cc1Cl [compound 135],99,9,100,0,100,100,58,
"Cc1nn(C)c(Nc2c(F)cc(Cl)cc2F)c1-c1ccc(F)cc1Br [Compound 129, 4-(2-bromo-4-fluorophenyl)-N-(4-chloro-2,6-difluorophenyl)-1,3-dimethyl-1H-pyrazol-5-amine]",,,,,,,,pest or weed control at 200 µg/mL [1]: 100%; pest or weed control at 200 µg/mL [2]: 79%; pest or weed control at 200 µg/mL (Septoria tritici): 100%; pest or weed control at 200 µg/mL (Septoria nodorum): 95%; pest or weed control at 200 µg/mL (Botrytis cinerea): 100%; pest or weed control at 200 µg/mL [3]: 100%; pest or weed control at 200 µg/mL (Alternaria solani): 97%
Cc1nn(C)c(Nc2ccc(F)cc2Br)c1-c1ccc(F)cc1Br [compound 95],100,91,100,51,100,100,97,
"COc1cc(F)c(Nc2c(-c3ccc(F)cc3Cl)c(C)nn2C)c(F)c1 [Compound 3, 4-(2-chloro-4-fluorophenyl)-N-(2,6-difluoro-4-methoxyphenyl)-1,3-dimethyl-1H-pyrazol-5-amine]",,,,,,,,pest or weed control at 200 µg/mL [1]: 100%; pest or weed control at 200 µg/mL [2]: 96%; pest or weed control at 200 µg/mL (Septoria tritici): 97%; pest or weed control at 200 µg/mL (Septoria nodorum): 93%; pest or weed control at 200 µg/mL (Botrytis cinerea): 100%; pest or weed control at 200 µg/mL [3]: 100%; pest or weed control at 200 µg/mL (Alternaria solani): 100%
COc1ccc(Nc2c(-c3c(F)cccc3F)c(C)nn2C)c(F)c1 [compound 51],68,0,98,0,100,100,99,
Cc1nn(C)c(Oc2ccc(C#N)cc2Cl)c1-c1ccc(Cl)cc1Cl [compound 131],96,0,100,0,100,96,0,
COc1cc(F)c(Nc2c(-c3c(F)cc(C#N)cc3F)c(C)nn2C)c(F)c1 [compound 36],41,0,99,0,99,0,0,
Cc1nn(C)c(Nc2c(Cl)cc(F)cc2Br)c1-c1ccc(F)cc1F [compound 120],100,19,100,94,100,100,80,
Cc1nn(C)c(Nc2c(F)cc(F)cc2Cl)c1-c1c(F)cccc1Cl [compound 87],100,0,100,87,100,100,93,
"Cc1nn(C)c(Nc2ccc(F)cc2F)c1-c1ccc(Cl)cc1Cl [Compound 17, 4-(2,4-dichlorophenyl)-N-(2,4-difluorophenyl)-1,3-dimethyl-1H-pyrazol-5-amine]",,,,,,,,pest or weed control at 200 µg/mL [1]: 99%; pest or weed control at 200 µg/mL [2]: 91%; pest or weed control at 200 µg/mL (Septoria tritici): 99%; pest or weed control at 200 µg/mL (Septoria nodorum): 60%; pest or weed control at 200 µg/mL (Botrytis cinerea): 100%; pest or weed control at 200 µg/mL [3]: 100%; pest or weed control at 200 µg/mL (Alternaria solani): 73%
COc1ccc(-c2c(C)nn(C)c2Nc2ccc(F)cc2F)c(Cl)c1 [compound 42],100,8,99,0,98,100,99,
COc1cc(F)c(Nc2c(-c3c(F)cc(F)cc3F)c(C)nn2C)c(F)c1 [compound 19],89,0,98,0,99,91,82,
Cc1nn(C)c(Nc2c(F)cc(I)cc2F)c1-c1ccc(F)cc1F [compound 216],,,,,,,,Test H rating (% disease control) [1]: 95%; Test G rating (% disease control) [2]: 18%; Test F rating (% disease control) (Septoria tritici): 100%; Test E rating (% disease control) (Septoria nodorum): 60%; Test A rating (% disease control) (Botrytis cinerea): 100%; Test I rating (% disease control) [3]: 99%; Test B rating (% disease control) (Alternaria solani): 0%
"Cc1nn(C)c(Nc2c(F)cc(C#N)cc2F)c1-c1ccc(F)cc1Cl [Compound 25, 4-[[4-(2-chloro-4-fluorophenyl)-1,3-dimethyl-1H-pyrazol-5-yl]amino]-3,5-difluorobenzonitrile]",,,,,,,,pest or weed control at 200 µg/mL [1]: 100%; pest or weed control at 200 µg/mL [2]: 0%; pest or weed control at 200 µg/mL (Septoria tritici): 99%; pest or weed control at 200 µg/mL (Septoria nodorum): 95%; pest or weed control at 200 µg/mL (Botrytis cinerea): 100%; pest or weed control at 200 µg/mL [3]: 100%; pest or weed control at 200 µg/mL (Alternaria solani): 99%
COc1cc(F)c(-c2c(C)nn(C)c2Oc2c(F)cc(C#N)cc2F)c(F)c1 [compound 38],96,0,99,87,99,97,94,
Cc1nn(C)c(Nc2c(F)cccc2F)c1-c1c(F)cccc1F [compound 69],99,0,100,60,100,100,99,
Cc1nn(C)c(Nc2c(F)cc(I)cc2F)c1-c1ccc(F)cc1Cl [compound 217],,,,,,,,Test H rating (% disease control) [1]: 99%; Test G rating (% disease control) [2]: 41%; Test F rating (% disease control) (Septoria tritici): 100%; Test E rating (% disease control) (Septoria nodorum): 86%; Test A rating (% disease control) (Botrytis cinerea): 100%; Test I rating (% disease control) [3]: 99%; Test B rating (% disease control) (Alternaria solani): 58%
